“And” between values parts separate entries of the source, which are not always exact repeats. Identical values can stand only once. Marks after values point to notes of the source that are not given here.
Experiments:
prostaglandin E2 (PGE2) = assay: In vivo estimation of rat serum prostaglandin E2 (PGE2); settings: carrageenan-injected rats, 10 µmol/kg b.wt po, after 8 h; for PGE2 Serum Conc.: mean ± SEM, n = 5
Protocol: Measuring plasma levels of prostaglandin E2 is one of the substantial parameters in confirming the in vivo COX-2 inhibition.
(approved by HU-IACUC). For more details, see Page S16, Supplementary File. […]
4.2.4. Estimation of rat serum prostaglandin E2 (PGE2) […]
procedure using EIA PGE2 kit (Aldrich, Steinheim, Germany). The kits as well as blood samples were […]
to a monoclonal antibody to PGE2 in kit. Excess reagents were removed followed by adding the substrate was added and incubated for short time. When a yellow color generate the optical density […]

[1] = system: carrageenan-induced paw edema; assay: In vivo carrageenan-induced paw edema in mice; settings: for Thickness of Edema, 0 h / percentage anti-inflammatory activity (AI%), 2 h / Thickness of Edema, 2 h / percentage anti-inflammatory activity (AI%), 4 h / Thickness of Edema, 4 h / percentage anti-inflammatory activity (AI%), 6 h / Thickness of Edema, 6 h / percentage anti-inflammatory activity (AI%), 8 h / Thickness of Edema, 8 h: 10 µmol/kg b.wt po; for Thickness of Edema, 0 h / Thickness of Edema, 2 h / Thickness of Edema, 4 h / Thickness of Edema, 6 h / Thickness of Edema, 8 h: mean ± SEM, n = 5; for percentage anti-inflammatory activity (AI%), 2 h / Thickness of Edema, 2 h: 2 h after carrageenan; for percentage anti-inflammatory activity (AI%), 4 h / Thickness of Edema, 4 h: 4 h after carrageenan; for percentage anti-inflammatory activity (AI%), 6 h / Thickness of Edema, 6 h: 6 h after carrageenan; for percentage anti-inflammatory activity (AI%), 8 h / Thickness of Edema, 8 h: 8 h after carrageenan; for ED50: Mus musculus, paw edema inhibition 8 h after carrageenan, doses 5, 10, 20, 30 and 40 µmol/kg, read-out: ED50 (95% Confidence Level)
[2] = biological target: T1, (Ovis aries, UniProt P05979); assay: In vitro human COX-1 enzymatic inhibitory activity (Cayman COX inhibitor screening assay kit); assay type: biochemical; settings: mean ± SEM of triplicate determinations
T1 construct: purchased Cayman Chemicals Inc., Ann Arbor, MI, USA 560131
T1 sequence (P05979 25-600): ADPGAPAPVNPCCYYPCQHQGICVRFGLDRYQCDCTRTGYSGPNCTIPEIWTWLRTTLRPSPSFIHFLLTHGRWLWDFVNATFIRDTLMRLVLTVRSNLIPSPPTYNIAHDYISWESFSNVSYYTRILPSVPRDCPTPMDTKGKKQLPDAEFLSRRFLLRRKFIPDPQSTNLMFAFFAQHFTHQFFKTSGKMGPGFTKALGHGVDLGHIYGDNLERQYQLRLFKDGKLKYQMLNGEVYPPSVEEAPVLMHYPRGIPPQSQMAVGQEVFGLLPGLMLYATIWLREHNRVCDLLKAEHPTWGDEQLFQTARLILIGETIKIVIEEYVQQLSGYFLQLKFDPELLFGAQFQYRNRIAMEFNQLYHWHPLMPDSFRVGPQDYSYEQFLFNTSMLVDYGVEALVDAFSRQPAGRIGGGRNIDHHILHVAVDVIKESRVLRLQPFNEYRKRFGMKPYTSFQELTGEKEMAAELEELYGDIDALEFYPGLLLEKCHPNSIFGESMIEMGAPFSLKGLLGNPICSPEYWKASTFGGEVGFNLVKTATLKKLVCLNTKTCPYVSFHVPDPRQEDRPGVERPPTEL
Protocol: (§1) Inhibitory activities were defined as a test compound concentration achieving 50% human COX-1 or human COX-2 inhibition. The selectivity of compounds was referred to as a compound’s selectivity index values calculated as IC50 (COX-1)/IC50 (COX-2).
(§2) In vitro human COX-1 and human COX-2 enzymatic inhibitory activity of the tested compounds as well as the reference drugs was carried out according to the previously mentioned procedures; for details, see Page S15, Supplementary File.
(§3) 4.2. Biological screening
(§4) 4.2.1. In vitro human COX-1 and human COX-2 enzymatic inhibitory activities In vitro human COX-1 and human COX-2 enzymatic inhibitory activity of the tested compounds as well as the reference drugs was carried out according to the previously mentioned procedures [1][2]depending on Cayman colorimetric COX (ovine) inhibitor screening assay kit (Catalog No.
(§5) All reagents, test solutions and experimental procedures were performed in correspondence to both the manufacturer’s instructions and previously reported methods. Briefly, […] of different concentrations of tested compound solutions were added to a series of supplied reaction buffer solutions (960 µL, 0.1 M Tris-HCl, pH 8.0 containing 5 mM EDTA and 2 mM phenol) with either COX-1 or COX-2 (10 µL) enzyme in the presence of heme (10 µL). 10 µL of Arachidonic Acid (100 µM) solution were added to the mixtures of the enzyme and tested compounds, After incubating for 5 min at 25 °C followed by stopping COX reaction by adding of 50 µL of 1 M HCl. Moreover, after adding 100 µL of saturated stannous chloride solution, the absorbance was measured spectrophotometrically using plate reader. measuring the […]
(§6) percentage of human COX-1 or human COX-2 enzymatic inhibition of five different concentrations of each compound and then concentration-inhibition response curve were plotted to obtain IC50 values(three determinations). […]

human COX-2 = biological target: T2, human COX-2 (Homo sapiens, UniProt P35354); assay: In vitro human COX-2 enzymatic inhibitory activity (Cayman COX inhibitor screening assay kit); assay type: biochemical; settings: for SI COX-1/COX-2: COX-2 selectivity index: COX-1 IC50/COX-2 IC50; for IC50: mean ± SEM of triplicate determinations
T2 construct: purchased Cayman Chemicals Inc., Ann Arbor, MI, USA 560131
T2 sequence (P35354 18-604): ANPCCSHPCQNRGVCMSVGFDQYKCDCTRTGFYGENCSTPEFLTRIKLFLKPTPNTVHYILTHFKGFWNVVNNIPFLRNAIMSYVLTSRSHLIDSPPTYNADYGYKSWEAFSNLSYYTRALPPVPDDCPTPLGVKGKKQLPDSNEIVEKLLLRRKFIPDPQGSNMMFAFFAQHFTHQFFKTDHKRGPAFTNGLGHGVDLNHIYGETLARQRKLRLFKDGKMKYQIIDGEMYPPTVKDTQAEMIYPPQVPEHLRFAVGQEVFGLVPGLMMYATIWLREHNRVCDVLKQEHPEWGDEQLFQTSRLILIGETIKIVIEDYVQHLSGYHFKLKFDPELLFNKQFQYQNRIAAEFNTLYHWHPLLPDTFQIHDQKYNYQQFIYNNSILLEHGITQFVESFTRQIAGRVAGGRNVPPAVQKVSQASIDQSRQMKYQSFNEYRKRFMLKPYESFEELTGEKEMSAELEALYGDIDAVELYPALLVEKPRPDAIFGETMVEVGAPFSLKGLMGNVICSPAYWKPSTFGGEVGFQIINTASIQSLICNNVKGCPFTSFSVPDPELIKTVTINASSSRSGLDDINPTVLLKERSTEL
Protocol: as §1, §2, §3, §4, §5, §6

Structure (SMILES)	% Inhibition of PGE2 production (prostaglandin E2 (PGE2))	PGE2 Serum Conc. (prostaglandin E2 (PGE2))	% Inhibition of PGE2 production (prostaglandin E2 (PGE2); listed as celecoxib)	Thickness of Edema, 0 h [1]	percentage anti-inflammatory activity (AI%), 2 h [1]	Thickness of Edema, 2 h [1]	percentage anti-inflammatory activity (AI%), 4 h [1]	Thickness of Edema, 4 h [1]	percentage anti-inflammatory activity (AI%), 6 h [1]	Thickness of Edema, 6 h [1]	percentage anti-inflammatory activity (AI%), 8 h [1]	Thickness of Edema, 8 h [1]	ED50 [1]	IC50 [2]	SI COX-1/COX-2 (human COX-2)	IC50 (human COX-2)	melting point
Cc1ccc(-c2cc(C(F)(F)F)nn2-c2ccc(S(N)(=O)=O)cc2)cc1 [Celecoxib, celecoxib, reference compound]	78.62%	157.245 ± 7.33 ^c,d pg/mL	78.62%	2.10 ± 0.005 mm	70.86%	2.54 ± 0.007 mm	79.27%	2.44 ± 0.011 mm	87.28%	2.32 ± 0.010 mm	89.01%	2.30 ± 0.009 mm	16.2 µmol/kg	–	–	–	–
[N-]=[N+]=Nc1ccc(S(=O)(=O)Nc2ncccn2)cc1 [Compound 1c, 4-Azido-N-(pyrimidin-2-yl)benzenesulfonamide]	–	–	–	–	–	–	–	–	–	–	–	–	–	5930 ± 88.2 nM	65.89	90 ± 0.6 nM	–
Cc1ccnc(NS(=O)(=O)c2ccc(N=[N+]=[N-])cc2)n1 [Compound 1d, 4-Azido-N-(4-methylpyrimidin-2-yl)benzenesulfonamide]	–	–	–	–	–	–	–	–	–	–	–	–	–	4600 ± 115 nM	46	100 ± 3.3 nM	–
CC(=O)c1nnn(-c2ccc(S(=O)(=O)Nc3ncccn3)cc2)c1C [Compound 4c, 4-(4-Acetyl-5-methyl-1H-1,2,3-triazol-1-yl)-N-(pyrimidin-2-yl)benzenesulfonamide]	–	–	–	–	–	–	–	–	–	–	–	–	–	8230 ± 66.7 nM	91.44	90 ± 0.3 nM	233 to 235 °C
CC(=O)c1nnn(-c2ccc(S(=O)(=O)Nc3nccc(C)n3)cc2)c1C [Compound 4d, 4-(4-Acetyl-5-methyl-1H-1,2,3-triazol-1-yl)-N-(4-methylpyrimidin-2-yl)benzenesulfonamide]	–	–	–	–	–	–	–	–	–	–	–	–	–	9270 ± 66.7 nM	84.27	110 ± 5.7 nM	241 to 243 °C
CC(=NNC(=O)C(C)c1ccc(CC(C)C)cc1)c1nnn(-c2ccc(S(N)(=O)=O)cc2)c1C (stereo not shown) [Compound 6a, 4-(4-(1-(2-(2-(4-Isobutylphenyl)propanoyl)hydrazineylidene)ethyl)-5-methyl-1H-1,2,3-triazol-1-yl)benzenesulfonamide]	–	–	–	–	–	–	–	–	–	–	–	–	–	9130 ± 88.2 nM	114.13	80 ± 0.6 nM	205 to 207 °C
CC(=NNC(=O)C(C)c1ccc(CC(C)C)cc1)c1nnn(-c2ccc(S(=O)(=O)Nc3nccs3)cc2)c1C (stereo not shown) [Compound 6b, 4-(4-(1-(2-(2-(4-Isobutylphenyl)propanoyl)hydrazineylidene)ethyl)-5-methyl-1H-1,2,3-triazol-1-yl)-N-(thiazol-2-yl)benzenesulfonamide]	90.70%	68.388 ± 7.13 ^c,d pg/mL	–	2.14 ± 0.006 mm	86.75%	2.34 ± 0.009 mm	94.51%	2.23 ± 0.009 mm	97.69%	2.18 ± 0.009 mm	99.45%	2.15 ± 0.007 mm	11.7 µmol/kg	13170 ± 120 nM	329 and 329.25	40 ± 0.7 nM	–
CC(=NNC(=O)Cc1ccccc1Nc1c(Cl)cccc1Cl)c1nnn(-c2ccc(S(=O)(=O)Nc3nccs3)cc2)c1C [Compound 6e, 4-(4-(1-(2-(2-(2-((2,6-Dichlorophenyl)amino)phenyl)acetyl)hydrazineylidene)ethyl)-5-methyl-1H-1,2,3-triazol-1-yl)-N-(thiazol-2-yl)benzenesulfonamide]	74.80%	185.329 ± 6.79 ^c,d pg/mL	–	2.12 ± 0.007 mm	58.28%	2.75 ± 0.008 mm	68.90%	2.63 ± 0.010 mm	75.72%	2.54 ± 0.009 mm	78.02%	2.52 ± 0.006 mm	18.2 µmol/kg	10230 ± 33.3 nM	204 and 204.6	50 ± 0.6 nM	–
CC(=NNC(=O)c1ccccc1O)c1nnn(-c2ccc(S(=O)(=O)Nc3nccc(C)n3)cc2)c1C [Compound 6j, 4-(4-(1-(2-(2-Hydroxybenzoyl)hydrazineylidene)ethyl)-5-methyl-1H-1,2,3-triazol-1-yl)-N-(4-methylpyrimidin-2-yl)benzenesulfonamide]	86.34%	100.435 ± 5.66 ^c,d pg/mL	–	2.08 ± 0.007 mm	73.51%	2.48 ± 0.005 mm	82.32%	2.37 ± 0.009 mm	88.44%	2.28 ± 0.011 mm	91.21%	2.24 ± 0.009 mm	13.4 µmol/kg	12500 ± 57.7 nM	312 and 312.5	40 ± 0.6 nM	–
O=C(O)Cc1ccccc1Nc1c(Cl)cccc1Cl [Diclofenac, diclofenac, reference compound]	72.27%	203.973 ± 6.35 ^c,d pg/mL	–	2.08 ± 0.006 mm	41.72%	2.96 ± 0.009 mm	55.49%	2.81 ± 0.009 mm	67.63%	2.64 ± 0.01 mm	72.53%	2.58 ± 0.01 mm	18.4 µmol/kg	–	–	–	–

From publication PMC9609428, “Rational Design and Synthesis of New Selective COX-2 Inhibitors with In Vivo PGE2-Lowering Activity by Tethering Benzenesulfonamide and 1,2,3-Triazole Pharmacophores to Some NSAIDs” (Pharmaceuticals, 2022)
